Results taken from patent US20180132485A1, “USE OF HYDROXYAPATITE AS A CARRIER OF NUTRITIONAL ELEMENTS AND VEGETAL EXTRACTS FOR TREATING PLANTS” (NDG NATURAL DEVELOPMENT GROUP S.R.L., priority 2015, published 2018).

System: Agrobacterium vitis
Test: Inhibition of growth of Agrobacterium vitis strains on PDA plates (diameters of inhibitory zones)
Format: cell-based
Conditions: 3% v/v; 6 strains; 28° C., 2-5 days
Experimental: The biological efficacy of the test agents was determined in terms of inhibition of the growth. To this aim 6 strains of Agrobacterium vitis from different growing areas worldwide, were grown in vitro. The strains of A. vitis, were inoculated on Petri dishes containing PDA (Potato Dextrose Agar), in the ratio of approximately 10 to 8 cells. After plating the bacteria, 5 holes (6 mm) were drilled in the substrate (one at the center of the plate and 4 equally spaced around the central hole). Each plate was filled with 20 microliters of test substance at the concentrations indicated; for each substance and concentration, 3 replies were set up. The central hole was filled with 20 microliters of sterile water, which represented the untreated control. The plates were incubated at 28° C., for 2-5 days.
After the expiration of the incubation period, for each tested strain and for each substance and concentration, the diameters of the inhibitory zones were considered (average of two orthogonal diameters of each inhibitory area). The collected data were subjected to analysis of variance ANOVA and comparison of averages with SNK test.

OCl [Sodium Hypochlorite]
inhibition of the growth (inhibitory zones): completely inhibited
